Test results taken from US6113907A, “Pharmaceutical grade St. John's Wort” (priority 1997, dated 2000).
Like-named read-outs stand apart in the source and are kept apart here.

Columns and labels:
MAOA = molecular target: T1, MAOA (Rattus norvegicus, UniProt P21396); assay: NIMH/NovaScreen screen, MAOA; assay type: biochemical
T1 sequence (P21396 1-526): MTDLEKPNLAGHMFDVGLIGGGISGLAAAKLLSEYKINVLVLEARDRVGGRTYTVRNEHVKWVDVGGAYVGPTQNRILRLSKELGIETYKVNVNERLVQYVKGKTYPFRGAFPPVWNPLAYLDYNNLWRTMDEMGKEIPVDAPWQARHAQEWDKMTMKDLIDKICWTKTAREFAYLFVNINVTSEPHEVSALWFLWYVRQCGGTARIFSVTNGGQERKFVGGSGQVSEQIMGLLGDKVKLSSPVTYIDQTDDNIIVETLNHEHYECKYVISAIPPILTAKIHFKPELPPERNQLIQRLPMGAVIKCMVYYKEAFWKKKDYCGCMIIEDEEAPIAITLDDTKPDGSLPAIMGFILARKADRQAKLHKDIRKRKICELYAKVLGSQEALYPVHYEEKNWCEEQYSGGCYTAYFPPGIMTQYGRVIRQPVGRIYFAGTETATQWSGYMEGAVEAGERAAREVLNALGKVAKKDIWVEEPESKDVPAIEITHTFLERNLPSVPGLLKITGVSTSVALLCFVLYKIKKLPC
Method: Through an NIMH screening contract (NovaScreen™, Baltimore, Md.) a commercially available crude extract from the fresh flowers and buds of Hypericum perforatum [1:1.5; hydro-alcohol (40:60) made from flowering tops; Herb Pharm] containing ~0.1% hypericin was dried under vacuum, dissolved in 4% DMSO, and diluted to an initial concentration of 50 mg/ml for in vitro screening in a battery of 39 receptor assays and two enzyme systems (Table 5, below).

serotonin transporter = molecular target: T2, serotonin transporter (Rattus norvegicus, UniProt P31652); assay: serotonin transporter assay, [125I]-RTI-121, rat cerebral cortical membranes; assay type: binding
T2 construct: Cerebral cortical membranes derived from male Wistar rats; from tissue; host or cells: cerebral cortical membranes of male Wistar rats

GABAA receptor = assay: GABAA agonist site binding assay, [3H]-GABA, bovine cerebellar membranes; details: 10^-4 M
Method: The reference literature compounds for this assay include diazepam and muscimol (Sigma Chemical Company).
The reaction is terminated by rapid vacuum filtration onto glass fiber filters. Radioactivity trapped onto the filters is determined and compared to control values in order to ascertain any interactions of test compound with the GABAA receptor.

Nitric oxide synthetase = assay: nitric oxide synthetase binding (NOS), [3H] NOARG, rat brain membranes; details: 10^-4; 60 min, 100 µM
Method: The inhibition of MAOA enzymatic activity (MAOA) was determined using rat liver mitochondrial membranes as a partially purified enzyme source. […] The reaction involves the conversion of the substrate to [^14 C] 5-hydroxyl indoleacetaldehyde+NH4^+. In brief, the enzyme is preincubated with the substances and the subtype specific blocker deprenyl (at 300 nM) for 60 minutes at 37° C. in 100 mM KPO4 (pH 7.2). Substrate is added and incubated for an additional 10 minutes. The reaction is terminated by the addition of 0.5 ml of 2M citric acid. […] Nitric oxide synthetase activity was measured using a binding assay (NOS). The receptors were made by partial purification of material from rat brain membranes. The radioligand used was [^3 H] L-N^G -Nitro-Arginine (NOARG) at a final concentration of 5 nM. Non-specific binding was determined using 100 μM of NOARG. The assay reactions were carried out in 50 mM Tris-HCl (pH 7.4) for 60 minutes at 25° C.

[1] = test system: Receptor tyrosine kinase of epidermal growth factor; details: cited from earlier work
muscarinic M1 receptor = molecular target: T3, muscarinic M1 receptor (Bos taurus, UniProt F1N5C5); assay: muscarinic M1 binding, [3H]-Pirenzepine, bovine striatal membranes; details: read-out: MuscM1 Binding % inhibition (PharmaPrint range)
T3 construct: Using receptors derived from bovine striatal membranes; from tissue; host or cells: bovine striatal membranes

herpes simplex = details: cited from earlier work
[2] = test system: equine infectious anemia virus; details: cited from earlier work
[3] = test system: human immunodeficiency virus type 1 (HIV-1); details: cited from earlier work

T2 sequence (P31652 whole entry): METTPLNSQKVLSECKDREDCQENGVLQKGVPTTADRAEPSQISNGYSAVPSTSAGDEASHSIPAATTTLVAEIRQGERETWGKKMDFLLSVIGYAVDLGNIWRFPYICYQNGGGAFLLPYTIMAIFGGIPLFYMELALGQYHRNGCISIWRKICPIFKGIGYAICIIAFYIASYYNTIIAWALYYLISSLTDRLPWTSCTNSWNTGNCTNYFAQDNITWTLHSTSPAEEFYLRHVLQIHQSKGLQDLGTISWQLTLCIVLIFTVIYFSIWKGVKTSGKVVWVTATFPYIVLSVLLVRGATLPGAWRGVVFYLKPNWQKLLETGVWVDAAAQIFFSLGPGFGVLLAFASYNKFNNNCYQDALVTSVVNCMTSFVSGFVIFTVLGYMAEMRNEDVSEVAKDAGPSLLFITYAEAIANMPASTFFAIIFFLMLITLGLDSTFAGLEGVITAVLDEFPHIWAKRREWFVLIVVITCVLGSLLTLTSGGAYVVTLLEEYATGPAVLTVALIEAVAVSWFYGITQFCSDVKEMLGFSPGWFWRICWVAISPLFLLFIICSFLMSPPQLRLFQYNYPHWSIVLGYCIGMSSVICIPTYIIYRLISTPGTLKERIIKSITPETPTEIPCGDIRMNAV
T3 sequence (F1N5C5 1-460): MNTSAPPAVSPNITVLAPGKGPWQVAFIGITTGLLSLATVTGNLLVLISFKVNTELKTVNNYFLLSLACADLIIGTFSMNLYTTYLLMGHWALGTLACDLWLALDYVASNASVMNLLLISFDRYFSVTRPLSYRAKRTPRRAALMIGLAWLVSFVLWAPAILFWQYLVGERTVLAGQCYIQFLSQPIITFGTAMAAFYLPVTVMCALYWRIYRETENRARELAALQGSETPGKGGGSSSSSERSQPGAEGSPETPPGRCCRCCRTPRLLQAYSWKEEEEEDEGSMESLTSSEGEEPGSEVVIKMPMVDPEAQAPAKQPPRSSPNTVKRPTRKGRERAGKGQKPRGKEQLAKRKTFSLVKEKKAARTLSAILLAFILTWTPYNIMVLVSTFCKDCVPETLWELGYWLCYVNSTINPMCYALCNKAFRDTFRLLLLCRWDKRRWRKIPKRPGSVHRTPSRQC

Structure (SMILES): Cc1cc(O)c2c(=O)c3c(O)cc(O)c4c5c(O)cc(O)c6c(=O)c7c(O)cc(C)c8c1c2c(c34)c(c78)c65 [Hypericin, hypericin]
- inhibition at 10 µM (MAOA; 10 μM): 27%
- inhibition at 100 µM (MAOA; 100 μM): 20.8%
- MAOA inhibition (MAOA; up to 0.1 mM): lacked significant MAOA or MAO-^B inhibition
- inhibition at 100 µM (serotonin transporter; 10^-4, read-out: Sero): 51%
- inhibition at 100 µM (serotonin transporter; 10^-4 M, read-out: Sero % inhibition (PharmaPrint range)): 51 ± 2%
- IC50 (serotonin transporter; read-out: Sero (concentration)): 4 µM
- GABAA % inhibition (PharmaPrint range) (GABAA receptor): 30 ± 15%
- NOS (Nitric oxide synthetase): 48%
- receptor tyrosine kinase activity of epidermal growth factor [1]: inhibited
- inhibition at 100 µM (muscarinic M1 receptor): 80 ± 20%
- inhibition of herpes simplex (herpes simplex): inhibit
- activity against equine infectious anemia virus [2]: Activity has also been reported
- inhibition of HIV-1 [3]: inhibit
